Assay results taken from ChEMBL document CHEMBL4831544, “Discovery of IHMT-EZH2-115 as a Potent and Selective Enhancer of Zeste Homolog 2 (EZH2) Inhibitor for the Treatment of B-Cell Lymphomas” (J Med Chem, 2021).

Assays:
[1] = target: Protein arginine N-methyltransferase 6 (Homo sapiens) (UniProt Q96LA8); experiment: Inhibition of PRMT6 (unknown origin) at 10 uM using SAM as substrate measured up to 960 mins by AlphaScreen microplate reader assay relative to control; conditions: time min <=960
Sequence of Protein arginine N-methyltransferase 6 (Homo sapiens) (Q96LA8 whole entry, looked up): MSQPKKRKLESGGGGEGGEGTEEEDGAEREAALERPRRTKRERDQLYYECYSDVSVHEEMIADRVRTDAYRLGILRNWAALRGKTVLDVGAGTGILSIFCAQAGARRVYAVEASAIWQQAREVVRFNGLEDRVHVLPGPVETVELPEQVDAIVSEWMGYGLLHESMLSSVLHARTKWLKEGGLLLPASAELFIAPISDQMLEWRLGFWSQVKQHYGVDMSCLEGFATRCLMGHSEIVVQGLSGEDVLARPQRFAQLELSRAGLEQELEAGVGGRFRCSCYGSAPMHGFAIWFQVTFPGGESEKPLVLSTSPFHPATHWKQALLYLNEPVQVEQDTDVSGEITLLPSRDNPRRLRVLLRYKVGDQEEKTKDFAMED

[2] = target: Histone-lysine N-methyltransferase SETDB1 (Homo sapiens) (UniProt Q15047); experiment: Inhibition of SETDB1 (unknown origin) at 10 uM using SAM as substrate measured up to 960 mins by AlphaScreen microplate reader assay relative to control; conditions: time min <=960
[3] = target: N-lysine methyltransferase KMT5A (Homo sapiens) (UniProt Q9NQR1); experiment: Inhibition of SET8 (unknown origin) at 10 uM using SAM as substrate measured up to 960 mins by AlphaScreen microplate reader assay relative to control; conditions: time min <=960
Sequence of N-lysine methyltransferase KMT5A (Homo sapiens) (Q9NQR1 whole entry): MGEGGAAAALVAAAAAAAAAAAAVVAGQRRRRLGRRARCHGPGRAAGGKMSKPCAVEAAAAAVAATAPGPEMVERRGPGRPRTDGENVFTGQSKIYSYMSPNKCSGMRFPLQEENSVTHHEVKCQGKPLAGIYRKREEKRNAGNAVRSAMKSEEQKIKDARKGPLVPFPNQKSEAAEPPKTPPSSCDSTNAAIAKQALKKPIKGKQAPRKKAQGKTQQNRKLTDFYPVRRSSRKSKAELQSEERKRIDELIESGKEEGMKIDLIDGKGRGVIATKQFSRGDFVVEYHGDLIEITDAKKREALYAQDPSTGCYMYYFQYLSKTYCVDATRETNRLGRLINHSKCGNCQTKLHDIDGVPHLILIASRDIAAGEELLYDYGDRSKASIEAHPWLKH

[4] = tested on: Histone-lysine N-methyltransferase EZH2 (Homo sapiens), Q15910 [A677G]; experiment: Inhibition of EZH2 A677G mutant (unknown origin) at 10 uM using SAM as substrate measured up to 960 mins by AlphaScreen microplate reader assay relative to control; conditions: time min <=960
Sequence of Histone-lysine N-methyltransferase EZH2 (Homo sapiens), Q15910 [A677G] (Q15910 whole entry A677G): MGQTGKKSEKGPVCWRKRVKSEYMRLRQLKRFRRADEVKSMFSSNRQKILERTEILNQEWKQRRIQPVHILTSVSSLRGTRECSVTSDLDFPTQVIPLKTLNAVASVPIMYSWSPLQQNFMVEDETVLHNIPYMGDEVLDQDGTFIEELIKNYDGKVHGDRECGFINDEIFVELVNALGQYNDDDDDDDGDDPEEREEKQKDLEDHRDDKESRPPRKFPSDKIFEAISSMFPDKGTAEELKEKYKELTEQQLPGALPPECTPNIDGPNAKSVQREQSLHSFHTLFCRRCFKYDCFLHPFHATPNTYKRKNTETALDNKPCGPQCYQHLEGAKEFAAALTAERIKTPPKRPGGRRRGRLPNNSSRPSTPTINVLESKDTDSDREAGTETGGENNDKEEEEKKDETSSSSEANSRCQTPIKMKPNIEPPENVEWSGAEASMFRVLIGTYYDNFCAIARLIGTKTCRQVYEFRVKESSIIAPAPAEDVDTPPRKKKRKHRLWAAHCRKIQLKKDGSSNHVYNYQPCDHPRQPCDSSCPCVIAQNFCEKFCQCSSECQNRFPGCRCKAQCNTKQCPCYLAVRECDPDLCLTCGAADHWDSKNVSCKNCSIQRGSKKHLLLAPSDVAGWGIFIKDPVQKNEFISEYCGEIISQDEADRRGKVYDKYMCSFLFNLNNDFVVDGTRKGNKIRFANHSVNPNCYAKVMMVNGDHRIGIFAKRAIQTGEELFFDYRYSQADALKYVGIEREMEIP

[5] = tested on: Histone-lysine N-methyltransferase EZH2 (Homo sapiens), Q15910 [Y641F]; experiment: Inhibition of EZH2 Y641F mutant (unknown origin) at 10 uM using SAM as substrate measured up to 960 mins by AlphaScreen microplate reader assay relative to control; conditions: time min <=960
Sequence of Histone-lysine N-methyltransferase EZH2 (Homo sapiens), Q15910 [Y641F] (Q15910 whole entry Y641F, looked up): as the sequence (Q15910 whole entry A677G) above, with Y641F, G677A counted along it

Homo sapiens = organism: Homo sapiens; experiment: Inhibition of EZH2 (unknown origin) interaction with EED (unknown origin) at 10 uM relative to control
Raji = experiment: Antiproliferative activity against human Raji cells expressing wild type EZH2 assessed as inhibition of cell growth measured after 6 days by CellTiter-Glo luminescent assay; conditions: 144 h
KARPAS-422 [6] = experiment: Antitumor activity against human KARPAS-422 cells harboring EZH2 Y641N mutant xenografted in NCG mouse assessed as tumor growth inhibition at 50 mg/kg, po BID via gavage measured after 28 days relative to control; assay type: functional; conditions: KARPAS-422, po, 672 h, time 28 day, read-out: TGI
[7] = Half life in mouse at 10 mg/kg, po measured up to 24 hrs by LC-MS/MS analysis; assay type: ADME, organism-based; conditions: in vivo
[8] = Apparent volume of distribution in mouse at 10 mg/kg, po measured up to 24 hrs by LC-MS/MS analysis; assay type: ADME, organism-based; conditions: in vivo
[9] = AUC (0 to infinity) in mouse at 1 mg/kg, iv measured up to 24 hrs by LC-MS/MS analysis; assay type: ADME, organism-based; set-up: route intravenous, dose 1 mg/kg, time <=24; conditions: in vivo
KARPAS-422 [10] = experiment: Antitumor activity against human KARPAS-422 cells harboring EZH2 Y641N mutant xenografted in NCG mouse assessed as change in tumor weight at 50 mg/kg, po BID via gavage measured after 28 days (reference value: 2.14 g); assay type: functional; conditions: time 28 day

- inhibition [1]: 0%
- inhibition [2]: 1%
- inhibition [3]: 2%
- inhibition [4]: 87%
- inhibition [5]: 99%
- inhibition (Homo sapiens): 21%
- GI50 (Raji): > 10 µM
- t1/2 [7]: 1.3 h
- Vz [8]: 18.638 L/kg
- AUC(0-inf) [9]: 372 ng·h/mL
SMILES: CCN(C(=O)C1CC1)c1cc(-c2ccc(N3CCN(CC4CC4)CC3)nc2C)cc(C(=O)NCc2c(C)cc(C)[nH]c2=O)c1C
- inhibition in vivo at 50 mg/kg (KARPAS-422 [6]): 47.7%
- Activity (KARPAS-422 [10]): 1.17 g
